Consider three molecules from paper PMC9901164, “Cloning and characterization of nitrate reductase gene in kelp Saccharina japonica (Laminariales, Phaeophyta)” (BMC Plant Biology, 2023).

In one data set the target is T1, rSjNR-S (Saccharina japonica, UniProt A0A977LKQ3).
T1 construct: E. coli BL21(DE3) pCold-SUMO-10His, Ni-NTA, SUMO tag cut off
T1 sequence (A0A977LKQ3 1-705): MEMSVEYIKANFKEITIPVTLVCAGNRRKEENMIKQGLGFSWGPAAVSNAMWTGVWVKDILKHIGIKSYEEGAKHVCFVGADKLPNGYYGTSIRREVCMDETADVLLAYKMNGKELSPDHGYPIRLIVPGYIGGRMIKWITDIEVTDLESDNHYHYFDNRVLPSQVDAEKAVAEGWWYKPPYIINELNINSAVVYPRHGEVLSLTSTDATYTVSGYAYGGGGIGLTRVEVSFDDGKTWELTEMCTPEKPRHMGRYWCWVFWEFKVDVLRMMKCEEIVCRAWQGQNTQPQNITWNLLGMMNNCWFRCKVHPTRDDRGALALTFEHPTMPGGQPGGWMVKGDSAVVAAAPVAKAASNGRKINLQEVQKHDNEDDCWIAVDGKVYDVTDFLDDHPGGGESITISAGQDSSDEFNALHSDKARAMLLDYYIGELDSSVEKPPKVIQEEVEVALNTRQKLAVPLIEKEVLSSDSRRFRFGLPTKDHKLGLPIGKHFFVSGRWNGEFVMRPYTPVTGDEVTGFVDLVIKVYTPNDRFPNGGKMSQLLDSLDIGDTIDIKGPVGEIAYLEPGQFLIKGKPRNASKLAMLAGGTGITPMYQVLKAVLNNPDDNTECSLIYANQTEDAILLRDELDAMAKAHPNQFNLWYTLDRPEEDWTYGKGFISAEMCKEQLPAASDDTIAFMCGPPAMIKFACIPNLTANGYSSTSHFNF
The experiment in a line: Griess colorimetric nitrite assay, single concentration. Type of data set: biochemical. The following applies: 5 mM KNO3, 0.2 mM NADH, 100 mM HEPES pH 7.6, 10 μM FAD, 10 μM sodium molybdate, 10 mM MgCl2, 5 mM DTT, 24 °C. Background: Nitrite, measured by Griess reagent, commonly stands in for NO production.

Substrate in data set [1]: O=[N+]([O-])O
The experiment in a line: Griess colorimetric nitrite assay, Michaelis-Menten nonlinear regression. Type of data set: biochemical, Saccharina japonica. The following applies: 0.2 mM NADH, 100 mM HEPES pH 7.6, 10 μM FAD, 10 μM sodium molybdate, 10 mM MgCl2, 5 mM DTT, 24 °C, KNO3 0-20 mM, apparent.

As for `O=[N+]([O-])O` [KNO3], on rSjNR-S, the “Griess colorimetric nitrite assay, single concentration” value was “both rSjNR-L and rSjNR-S showed NR activity in vitro”.

Consider `NC(=O)C1=CN([C@@H]2O[C@H](COP(=O)(O)OP(=O)(O)OC[C@H]3O[C@@H](n4cnc5c(N)ncnc54)[C@H](O)[C@@H]3O)[C@@H](O)[C@H]2O)C=CC1` [NADH], for which the “Griess colorimetric nitrite assay, single concentration” value at rSjNR-S (electron donor) is listed as “the activity of rSjNR-S was lower than that of rSjNR-L”.

B1: rSjNR-L (Saccharina japonica) (protein)
chain: MASGIQSCKPEKADASLVNIKGHDYYKDTFVPPAEDVTEIDPRDKGTPDDWVPRHPELVRLTGRHPFNVEPPVWRIKDHGFISPNSLHYVRNHGAVPRIVQGDSHKVRFGGAIDKPMEMSVEYIKANFKEITIPVTLVCAGNRRKEENMIKQGLGFSWGPAAVSNAMWTGVWVKDILKHIGIKSYEEGAKHVCFVGADKLPNGYYGTSIRREVCMDETADVLLAYKMNGKELSPDHGYPIRLIVPGYIGGRMIKWITDIEVTDLESDNHYHYFDNRVLPSQVDAEKAVAEGWWYKPPYIINELNINSAVVYPRHGEVLSLTSTDATYTVSGYAYGGGGIGLTRVEVSFDDGKTWELTEMCTPEKPRHMGRYWCWVFWEFKVDVLRMMKCEEIVCRAWQGQNTQPQNITWNLLGMMNNCWFRCKVHPTRDDRGALALTFEHPTMPGGQPGGWMVKGDSAVVAAAPVAKAASNGRKINLQEVQKHDNEDDCWIAVDGKVYDVTDFLDDHPGGGESITISAGQDSSDEFNALHSDKARAMLLDYYIGELDSSVEKPPKVIQEEVEVALNTRQKLAVPLIEKEVLSSDSRRFRFGLPTKDHKLGLPIGKHFFVSGRWNGEFVMRPYTPVTGDEVTGFVDLVIKVYTPNDRFPNGGKMSQLLDSLDIGDTIDIKGPVGEIAYLEPGQFLIKGKPRNASKLAMLAGGTGITPMYQVLKAVLNNPDDNTECSLIYANQTEDAILLRDELDAMAKAHPNQFNLWYTLDRPEEDWTYGKGFISAEMCKEQLPAASDDTIAFMCGPPAMIKFACIPNLTANGYSSTSHFNF
notes: E. coli BL21(DE3) pCold-SUMO-10His, Ni-NTA, SUMO tag cut off
For the molecule B1, in data set [1], the Km is 0.42 (± 0.059) mM.
